This passage reports Ki results from ChEMBL document CHEMBL1140273, “Carbonic anhydrase inhibitors: novel sulfonamides incorporating 1,3,5-triazine moieties as inhibitors of the cytosolic and tumour-associated carbonic anhydrase isozymes I, II and IX” (Bioorg Med Chem Lett, 2005).

The assay has as its target Carbonic anhydrase 9 (Homo sapiens, UniProt Q16790).

The term Ki denotes the dissociation constant of the complex between target and ligand, obtained from inhibition or displacement. With `NS(=O)(=O)c1ccc(CCNc2nc(Cl)nc(NCC(=O)O)n2)cc1`, affinity was put at a Ki of 1 nM.

For the molecule `CC(C)Nc1nc(NCc2ccc(S(N)(=O)=O)cc2)nc(NC(C)C)n1`, the Ki was found to be 16 nM. The value for `CCN(CC)c1nc(NCc2ccc(S(N)(=O)=O)cc2)nc(N(CC)CC)n1` was 7.5 nM; that for `CCCNc1nc(NCCC)nc(Nc2ccc(S(N)(=O)=O)cc2)n1` was 56 nM; that for `NS(=O)(=O)c1ccc(Nc2nc(Oc3ccccc3)nc(Oc3ccccc3)n2)cc1` was 254 nM.
